≈ marks a conversion by molar mass, not a printed value. Where “and” joins values, the source holds several entries; their conditions need not be identical. Equal values may be shown once. Read-outs that look alike come from different tables or passages of the source.
Experiments:
[1] = test system: Bacillus Subtilis ATCC 6633; experiment: Antibacterial activity, MIC by double-microdilution method; assay type: cell-based; details: ATCC 6633; for MIC: Bacillus subtilis, ATCC6633, read-out: MIC B. Subtilis
Procedure: (§1) In order to compare the observed aminoglycoside-induced stop codon read-through activity in mammalian cells to antibacterial activity thereof, Compounds 1-9 were further investigated as antibacterial agents against both Gram-negative (E. coli) and Gram-positive (Bacillus subtilis) bacteria, and the minimal inhibitory concentration (MIC) values were determined by using a microdilution assay with paromomycin and gentamicin as controls, and the results are presented in Table 18 hereinabove.
(§2) The bacterial strains used were Escherichia coli ATCC 25922, and Bacillus Subtilis ATCC 6633. […] All the experiments were performed in triplicates and analogous results were obtained in two to four different experiments.

[2] = test system: Escherichia coli ATCC 25922; experiment: as above; assay type: cell-based; details: ATCC 25922; for MIC: Escherichia coli, ATCC25922, read-out: MIC E. coli
Procedure: as §1, §2

[3] = Cell toxicity assay (XTT cell proliferation); assay type: cell-based
Procedure: (§3) After 1 day the medium was changed to medium without streptomycin and different concentrations of the tested compounds were added. After 48 hours a cell proliferation assay (XTT based colorimetric assay, Biological Industries) was performed, using the 5 hours incubation protocol, according to the manufacturer's instructions. Optical density (OD) was read using an Elisa plate reader. Cell viability was calculated as the ratio between the number of living cells in cultures grown in the presence of the tested compounds, versus the corresponding cell cultures which were grown without the tested compounds.

[4] = test system: UGA C stop codon (p2LUC plasmid) in COS-7 cells; experiment: Ex vivo suppression, p2LUC dual luciferase reporter plasmid in COS-7 cells; assay type: cell-based, monkey; details: 24 hours incubation
Procedure: Recent studies on enhanced production of functional proteins from nonsense codon-containing genes by promoter-activating agents support this presumption. To test this possibility, Compound 3 along with paromomycin and gentamicin, were evaluated for the UGA C stop codon read-through activity in cultured cells using a dual luciferase reporter system.
Suppression of nonsense mutations by Compounds 1-9 was tested ex vivo using a dual luciferase reporter plasmid. The p2LUC plasmid harboring the UGAC mutation was transfected to COS-7 cells with Lipofectamine 2000 (Invitrogen) and addition of tested compounds was performed after 15 hours. Luciferase activity was determined after 24 hours of incubation, using the Dual Luciferase Reporter Assay System (Promega) and stop codon readthrough was calculated as described previously.

[5] = test system: R245X nonsense mutation (a premature UGA A stop codon) of the PCDH15 gene; experiment: In vitro suppression, pDB reporter plasmid in reticulocyte lysate; assay type: biochemical, human; details: for Concentration (μM) at which maximal suppression was observed, R245X / suppression level (%), maximum in vitro, R245X: Table 20; for suppression level (%), maximum in vitro, R245X: at concentration of maximal suppression; for difference in suppression of R3X versus R245X: maximal suppression levels
Procedure: Compound 37 was tested for its ability to suppress a nonsense mutation in-vitro, using a reporter construct carrying either R3X nonsense mutation (a premature UGA C stop codon) or R245X nonsense mutation (a premature UGA A stop codon) of the PCDH15 gene, using gentamicin, paromomycin and Compound 3 as standards and following the experimental procedures presented hereinabove.
For the rat-PGM-β-Gal in vitro readthrough system, the pDB series of reporter plasmids harbor the following elements under SP6 promoter control: an open reading frame (ORF) derived from the 5′ end of the rat PGM gene, which encodes a 25-kDa polypeptide; another small ORF, encoding the 10-kDa alpha complementation region of β-galactosidase, and terminated by tandem, in-frame stop codons (UAA UAG); located between the two ORFs is a DNA fragment derived from PCDH15 cDNA, including the tested stop mutation or the corresponding wild-type codon, and six upstream and downstream flanking codons (except for p.R3X constructs, in which there are only two upstream PCDH15-flanking codons). The fragments were created by annealing the following couples of complementary oligonucleotides:
The fragments were inserted into the BamHI and HindIII restriction sites of the pDB read-through construct. Reporter plasmids harboring each of the four nonsense mutations and the corresponding wt alleles were in vitro transcribed and translated using the TNT SP6 Coupled Reticulocyte lysate System (Promega) in the presence of [^35S]-methionine and increasing concentrations of aminoglycosides as described previously. […] The degree of suppression was calculated as the relative proportion of the 35-kDa product out of total reaction products (35-kDa and 25-kDa polypeptides). The results are averages of at least three independent experiments.

[6] = test system: Escherichia coli (R477-100); experiment: Antibacterial activity, MIC; assay type: cell-based; details: for MIC: Escherichia coli, read-out: minimal inhibitory concentration (MIC)
[7] = test system: prokaryotic translation; experiment: Inhibition of prokaryotic translation; assay type: biochemical; details: for preference for inhibiting translation in prokaryotes versus eukaryotes: from IC50 values
[8] = test system: R3X nonsense mutation of the PCDH15 gene in COS-7 cells; experiment: Ex vivo readthrough assay, p2luc-R3X dual luciferase reporter plasmid in COS-7 cells; assay type: cell-based, monkey
Procedure: For the, suppression of nonsense mutations by novel compounds was tested ex vivo using a dual luciferase reporter plasmid ex vivo readthrough assay. To generate the p2luc plasmid harboring the R3X nonsense mutation of the PCDH15 gene, the following oligonucleotides: 5′-[…]-3′ (SEQ ID NO: 21) and 5′-[…]-3′ (SEQ ID NO: 22) were annealed to each other and inserted into to polylinker sequence of the p2luc vector. The reporter plasmid p2luc-R3X was transfected to cos-7 cells with Lipofectamine 2000 (Invitrogen) and addition of tested compounds was performed 5 hours post transfection. Luciferase activity was determined after 24 hours of incubation, using the Dual Luciferase Reporter Assay System (Promega) and stop codon readthrough was calculated as described previously.

[9] = Cell toxicity of Compound 37; assay type: cell-based
[10] = Acute toxicity in mice; assay type: in vivo
[11] = test system: TGA stop codon; experiment: Preliminary tests for in vitro readthrough activity of the TGA stop codon; assay type: biochemical
[12] = test system: human cytoplasmic A site olygonucleotide model duplexes; experiment: UV melting of A site oligonucleotide model duplexes; assay type: binding
Excerpt: FIG. 7 presents the UV melting profiles observed for the human cytoplasmic A site olygonucleotide model duplexes in the absence of any drug (“No Drug” curve in FIG. 7) and in complex with ribostamycin (“Ribostamycin” curve in FIG. 7), Compound 3 (“NB30” curve in FIG. 7) and Compound 37 (“NB54” curve in FIG. 7) complexes at a drug/duplex ratio of 5:1;

[13] = available toxicity data on aminoglycosides; unit inferred; cited from earlier work
[14] = test system: COS-7 (monkey kidney); experiment: Cell toxicity assay (XTT cell proliferation); assay type: cell-based; details: 48 hours
Procedure: as §3

[15] = test system: HEK-293 (human embryonic kidney); experiment: Cell toxicity assay (XTT cell proliferation); assay type: cell-based; details: 48 hours
Procedure: as §3

[16] = test system: MDCK (canine kidney); experiment: Cell toxicity assay (XTT cell proliferation); assay type: cell-based; details: 48 hours
Procedure: as §3

`NC[C@H]1O[C@@H](O[C@@H]2[C@@H](O)[C@H](N)C[C@H](N)[C@H]2O[C@H]2O[C@H](CO)[C@@H](O)[C@H](O)[C@H]2N)[C@H](O)[C@@H]1O` [Compound 3] showed an MIC [1] of 48 µg/mL (≈ 106 µM), an MIC [2] of over 512 µg/mL and a CC50 at 48 h ([3]; dog, MDCK cells, 48 hours, read-out: LC50 MDCK) of 7530 ± 1210 µg/mL (≈ 16600 µM). For the same compound, the CC50 at 48 h ([3]; human, HEK-293 cells, 48 hours, read-out: LC50 HEK293) was 4820 ± 920 µg/mL (≈ 10600 µM), the CC50 at 48 h ([3]; monkey, COS-7 cells, 48 hours, read-out: LC50 COS-7) was 7030 ± 1850 µg/mL (≈ 15500 µM) and the “ex-vivo suppression of nonsense mutation (read-through activity), FIG. 4” value [4] was “superior to that of paromomycin and gentamicin at all the tested concentrations”. The “Concentration (μM) at which maximal suppression was observed, R245X” value (from here on “Concentration (μM)”) [5] was 178 µM, the “suppression level (%), maximum in vitro, R245X” value (shortened to “suppression level (%), maximum”) [5] was 6.0 ± 0.3% and the “difference in suppression of R3X versus R245X” value (shortened to “difference in suppression”) [5] was 3.5 fold. The MIC [6] was 790 µM (≈ 359 µg/mL), the “efficacy of inhibiting prokaryotic ribosome relative to gentamicin and paromomycin” value [7] was “significantly lower” and the “preference for inhibiting translation in prokaryotes versus eukaryotes” value [7] was “about two-order of magnitude”.
With `NCC[C@H](O)C(=O)N[C@@H]1CC(N)[C@@H](O[C@H]2OC(CO)[C@@H](O)C(O)C2N)C(O[C@@H]2O[C@H](CN)C(O)C2O)C1O` (stereo partly drawn) [Compound 37] the “Concentration (μM)” value [5] was 153 µM, the “suppression level (%), maximum” value [5] was 40.5% and 40.5 ± 7.5% and the “fold better suppression of R245X than Compound 3” value ([5]; maximal suppression level) was 6.5 fold. The “fold better suppression of R245X than gentamicin” value ([5]; maximal suppression level) was 3.6 fold, the “fold better suppression of R245X than paromomycin” value ([5]; maximal suppression level) was 4.5 fold and the “difference in suppression” value [5] was 1.8 fold. The MIC [6] was 384 µM (≈ 213 µg/mL), the “efficacy of inhibiting prokaryotic ribosome relative to gentamicin and paromomycin” value [7] was “significantly lower” and the “preference for inhibiting translation in prokaryotes versus eukaryotes” value [7] was “about two-order of magnitude”. For the same compound, the “maximum suppression level of the R3X nonsense mutation” value [8] was 5.25%, the “cell toxicity in comparison to paromomycin and gentamicin” value [9] was “significantly reduced” and the “acute toxicity in mice in comparison to paromomycin and gentamicin” value [10] was “significantly reduced”. The “in vitro readthrough activity of the TGA stop codon vs Compound 3 and paromomycin” value [11] was “significantly higher stop codon read-through activity” and the “affinity to the cytoplasmic A site versus Compound 3” value [12] was “greater affinity”.
For `NC[C@@H]1O[C@H](O[C@H]2[C@@H](O)[C@H](O[C@@H]3[C@@H](O)[C@H](N)C[C@H](N)[C@H]3O[C@H]3O[C@H](CO)[C@@H](O)[C@H](O)[C@H]3N)O[C@@H]2CO)[C@H](N)[C@@H](O)[C@@H]1O` [paromomycin, reference compound], the MIC [1] was 8 µg/mL (≈ 13 µM), the MIC [2] was 12 µg/mL (≈ 19.5 µM) and the CC50 at 48 h ([3]; dog) was 1000 ± 60 µg/mL (≈ 1620 µM). For the same compound, the CC50 at 48 h ([3]; human) was 770 ± 140 µg/mL (≈ 1250 µM), the CC50 at 48 h ([3]; monkey) was 900 ± 100 µg/mL (≈ 1460 µM) and the “Concentration (μM)” value [5] was 42 µM. For the same compound, the “suppression level (%), maximum” value [5] was 9 ± 3%, the “difference in suppression” value [5] was 5.4 fold and the MIC [6] was 22 µM (≈ 13.5 µg/mL). The “preference for inhibiting translation in prokaryotes versus eukaryotes” value [7] was “about tree order of magnitude” and the LD50 [13] was 160 mg/kg.
For gentamicin [reference compound], the “MIC B. Subtilis” value [1] was under 0.5 µg/mL, the “MIC E. coli” value [2] was 4 µg/mL and the “LC50 COS-7” value [14] was 490 ± 60 µg/mL. For the same compound, the “LC50 HEK293” value [15] was 700 ± 80 µg/mL, the “LC50 MDCK” value [16] was 510 ± 70 µg/mL and the “ex-vivo suppression of nonsense mutation (read-through activity), FIG. 4” value [4] was “less efficient than either paromomycin or Compound 3”. The “Concentration (μM)” value [5] was 61 µM, the “suppression level (%), maximum” value [5] was 11 ± 1.5% and the “difference in suppression” value [5] was 4.5 fold. The “minimal inhibitory concentration (MIC)” value ([6]; Escherichia coli (R477-100)) was 6 µM and the “preference for inhibiting translation in prokaryotes versus eukaryotes” value [7] was “about tree order of magnitude”.

Source: patent US20190060340A1, “NOVEL AMINOGLYCOSIDES AND USES THEREOF IN THE TREATMENT OF GENETIC DISORDERS” (Technion Research & Development Foundation Limited, priority 2007, published 2019)
